In patent US20030171345A1 (priority 2001, published 2003):
Read-outs that look alike come from different tables or passages of the source.

Legend:
[1] = test system: estrogen receptor preparations from rat prostates; assay: Competitive 3H-estradiol binding, rat prostate cytosol estrogen receptor; conditions: for Rat prost. ER(RBA): 3H-estradiol as ligand, rat prostate cytosol, estradiol = 100
[2] = test system: estrogen receptor preparations from rat uteri; assay: Competitive 3H-estradiol binding, rat uterus cytosol estrogen receptor; conditions: 3H-estradiol as ligand, estradiol = 100
hERβ [3] = conditions: cited from earlier work
hERβ [4] = assay: Relative binding affinity to hERβ (Kuiper et al.); design: species or system human; conditions: quotient of RBA to ERβ and ERα
Text: In this case, it is assumed that ERβ predominates in the rat prostates over ERα, and ERα predominates in rat uteri over ERβ.

[5] = relative binding affinity, estradiol = 100

Estradiol
Rat prost. ER(RBA) [1]: 100 | Rat uterus ER(RBA) [2]: 100 | hERβ RBA (hERβ [3]; [5]): 100

C[C@]12CCC(O)CC1=CC[C@@H]1[C@@H]2CC[C@]2(C)C(O)CC[C@@H]12 (stereo partly drawn) [5-Androstene-diol]
Rat prost. ER(RBA) [1]: 5 | prost. ER/uterus ER ([1]; ratio of the binding to prostate and uterus receptors): 50 | Rat uterus ER(RBA) [2]: 0.1 | ERβ/ERα (hERβ [4]): 3 | hERβ RBA (hERβ [3]): 17

C[C@]12CC[C@@H]3c4ccc(O)cc4CC[C@H]3[C@@H]1C[C@@H](O)[C@@H]2O [Estriol]
hERβ RBA (hERβ [3]; [5]): 21
